{"source": "patent US20260137815A1", "about": "“DIAGNOSTIC AND TREATMENT METHODS FOR ONYCHOMYCOSIS” (ToeFX Inc., priority 2022, published 2026)", "system": "T. rubrum strain F4520", "assay": "UV-Visual absorption spectra of MB incubated with T. rubrum", "method": "Referring to FIG. 5C, shown therein are UV-Visual absorption spectra of MB when incubated with T. rubrum. T. rubrum strain F4520 cubes were retrieved from −80° freezer, thawed at room temperature, and transferred to an Sabourand dextrose agar (SDA) plate, and distributed evenly on the SDA plate. The SDA plate was sealed by parafilm and moved into a 30° C. incubator until vigorous fungal growth was observed. Next, fungal mycelia were prepared, by transferring a 6.25 cm^2 culture from the SDA plate to a sterile blender cup and adding 200 mL sterile water. After 30 seconds of blending, varying amounts of blendate was pipetted into wells of a 96 well plate. […] The MB absorbance spectra was then measured by a photospectrometer.\nThe more dilute the fungus, the higher the MB absorbance value (i.e., normalized absorbance), indicating higher amounts of free MB in the solution.\nA similar protocol was followed as described above for FIG. 5C, except that the concentration of T. rubrum in the solution was kept constant. MB absorbance was measured immediately (curve 502), 4 days (curve 504), and 7 days (curve 506) after mixing. Immediately after mixing, the MB absorbance peak is centered at ˜660 nm, corresponding to the absorption peak of MB alone in solution (see FIG. 5A). Over time, the intensity of the absorbance peak is lowered as MB is adsorbed to fungal cells, consistent with the curves in FIG. 5C.", "data": [{"smiles": "CN(C)c1ccc2nc3ccc(=[N+](C)C)cc-3sc2c1", "note": "[MB, Methylene Blue]", "values": [{"measurement": "MB absorbance (normalized) with increasing fungal concentration", "setting": "0.01% v/v solution of MB, varying concentrations of T. rubrum", "value": "lower MB absorbance is observed"}, {"measurement": "shift of MB absorbance peak over time", "setting": "0.25% v/v solution of MB with T. rubrum culture, immediately, 4 days, 7 days after mixing", "value": "observable blue-shifting of the MB absorbance peak over time"}]}]}
